Source: ChEMBL document CHEMBL6114971, “Design, synthesis and biological evaluation of benzo[b]thiophene analogues as novel ferroptosis inhibitor that inhibit fibrosarcoma cell proliferation” (Bioorg Med Chem, 2025)

Assays:
HT-1080 [1] = test: Cell cycle arrest in human HT-1080 cells assessed as accumulation of cells at S-phase at 0.5 uM measured after 24 hrs by propidium iodide staining based flow cytometry (reference value: 21.1%); type: functional
HT-1080 [2] = test: Cell cycle arrest in human HT-1080 cells assessed as accumulation of cells at G2/M-phase at 1 uM measured after 24 hrs by propidium iodide staining based flow cytometry (reference value: 27%); type: functional
HT-1080 [3] = test: Cell cycle arrest in human HT-1080 cells assessed as accumulation of cells at G1-phase at 2 uM measured after 24 hrs by propidium iodide staining based flow cytometry (reference value: 51.3%); type: functional
[4] = Selectivity index, ratio of IC50 for HUVEC to IC50 for human HT-1080; type: toxicity; conditions: HUVEC versus HT-1080 cells, read-out: Ratio IC50
HT-1080 [5] = test: Cell cycle arrest in human HT-1080 cells assessed as accumulation of cells at G1-phase at 1 uM measured after 24 hrs by propidium iodide staining based flow cytometry (reference value: 51.3%); type: functional
HT-1080 [6] = test: Cell cycle arrest in human HT-1080 cells assessed as accumulation of cells at G2/M-phase at 0.5 uM measured after 24 hrs by propidium iodide staining based flow cytometry (reference value: 27%); type: functional
HT-1080 [7] = test: Induction of ROS generation in human HT-1080 cells assessed as increase in intracellular ROS level measured after 24 hrs by DCFH-DA probe based flow cytometry; type: functional, cell-based; conditions: dose 0.5-2 µM
[8] = target: T1, Phospholipid hydroperoxide glutathione peroxidase GPX4 (Homo sapiens) (UniProt P36969); test: Inhibition of GPX4 activity in human HT-1080 cells assessed as down regulation of GPX4 level at 2 uM measured after 24 hrs by Western blotting analysis; type: cell-based
T1 sequence (whole entry): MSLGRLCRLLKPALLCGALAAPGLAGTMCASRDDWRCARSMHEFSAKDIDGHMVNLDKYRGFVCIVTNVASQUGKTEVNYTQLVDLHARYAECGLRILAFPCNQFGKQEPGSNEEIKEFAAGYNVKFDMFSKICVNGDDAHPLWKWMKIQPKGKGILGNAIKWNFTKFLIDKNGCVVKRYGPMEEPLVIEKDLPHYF

HT-1080 [9] = test: Antiproliferative activity against human HT-1080 cells measured after 72 hrs by MTT assay; type: functional, cell-based; conditions: HT-1080, 72 h
HT-1080 [10] = test: Induction of ferroptosis in human HT-1080 cells assessed as increase in intracellular Fe2+ level measured after 24 hrs; type: functional, cell-based; conditions: dose 0.5-4 µM
HT-1080 [11] = test: Cell cycle arrest in human HT-1080 cells assessed as accumulation of cells at G2/M-phase at 2 uM measured after 24 hrs by propidium iodide staining based flow cytometry (reference value: 27%); type: functional
[12] = Cytotoxicity against human GES1 cells measured after 72 hrs by MTT assay; type: toxicity, cell-based
HT-1080 [13] = test: Cell cycle arrest in human HT-1080 cells assessed as accumulation of cells at S-phase at 2 uM measured after 24 hrs by propidium iodide staining based flow cytometry (reference value: 21.1%); type: functional
HT-1080 [14] = test: Cell cycle arrest in human HT-1080 cells assessed as accumulation of cells at S-phase at 1 uM measured after 24 hrs by propidium iodide staining based flow cytometry (reference value: 21.1%); type: functional
HT-1080 [15] = test: Induction of ROS generation in human HT-1080 cells assessed as intracellular ROS level at 0.5 uM measured after 24 hrs by DCFH-DA probe based flow cytometry (reference value: 33%); type: functional
HT-1080 [16] = test: Antiproliferative activity against human HT-1080 cells measured after 72 hrs in presence of ferroptosis inhibitor Fer-1 by MTT assay; type: functional, cell-based; conditions: HT-1080, 72 h
4T1 = test: Antiproliferative activity against mouse 4T1 cells measured after 72 hrs by MTT assay; type: functional, cell-based; conditions: 4T1, 72 h
HT-1080 [17] = test: Induction of ROS generation in human HT-1080 cells assessed as intracellular ROS level at 1 uM measured after 24 hrs by DCFH-DA probe based flow cytometry (reference value: 33%); type: functional
HT-1080 [18] = test: Induction of ferroptosis in human HT-1080 cells assessed as reduction in GSH level measured after 24 hrs; type: functional, cell-based; conditions: dose 0.5-4 µM
HT-1080 [19] = test: Induction of ferroptosis in human HT-1080 cells assessed as increase in MDA level measured after 24 hrs; type: functional, cell-based; conditions: dose 0.5-4 µM
MGC-803 = test: Antiproliferative activity against human MGC-803 cells measured after 72 hrs by MTT assay; type: functional, cell-based; conditions: MGC-803, 72 h
HT-1080 [20] = test: Reduction in GPX4 mRNA level in human HT-1080 cells measured after 24 hrs by qRT-PCR analysis; type: functional, cell-based; conditions: dose 0.5-4 µM
[21] = target: T1, Phospholipid hydroperoxide glutathione peroxidase GPX4 (Homo sapiens); test: Inhibition of GPX4 activity in human HT-1080 cells assessed as down regulation of GPX4 level measured after 24 hrs by Western blotting analysis; type: cell-based; conditions: dose 0.25-4 µM
[22] = Selectivity ratio of IC50 for antiproliferative activity against human HT-1080 cells in presence of ferroptosis inhibitor Fer-1 to IC50 for antiproliferative activity against human HT-1080 cells; type: functional
HT-1080 [23] = test: Cell cycle arrest in human HT-1080 cells assessed as accumulation of cells at G1-phase at 0.5 uM measured after 24 hrs by propidium iodide staining based flow cytometry (reference value: 51.3%); type: functional
[24] = Selectivity index, ratio of IC50 for human GES1 cells to IC50 for human HT-1080; type: toxicity; conditions: GES1 cells versus HT-1080 cells, read-out: Ratio IC50
HT-1080 [25] = test: Induction of ROS generation in human HT-1080 cells assessed as intracellular ROS level at 2 uM measured after 24 hrs by DCFH-DA probe based flow cytometry (reference value: 33%); type: functional
A549 = test: Antiproliferative activity against human A549 cells measured after 72 hrs by MTT assay; type: functional, cell-based; conditions: A549, 72 h
[26] = Cytotoxicity against HUVEC measured after 72 hrs by MTT assay; type: toxicity, cell-based; conditions: human
HT-1080 [27] = test: Induction of ROS generation in human HT-1080 cells assessed as intracellular ROS level at 2 uM measured after 24 hrs in presence of ferroptosis inhibitor Fer-1 by DCFH-DA probe based flow cytometry (reference value: 33%); type: functional

## COc1cc(N(Cc2csc3ccccc23)C(=O)CCl)cc(OC)c1OC
HT-1080 [1]
  Activity: 28.5%
HT-1080 [2]
  Activity: 23.8%
HT-1080 [3]
  Activity: 35.5%
[4]
  selectivity ratio: 27.7
HT-1080 [5]
  Activity: 38.8%
HT-1080 [6]
  Activity: 23.1%
HT-1080 [7]
  Activity: Dose-dependent-effect
[8]
  inhibition: Active; Significant Down Regulation Observed
HT-1080 [9]
  IC50: 0.94 µM
HT-1080 [10]
  Activity: Dose-dependent-effect
HT-1080 [11]
  Activity: 23.9%
[12]
  IC50 at 72 h: 103 µM
HT-1080 [13]
  Activity: 40.7%
HT-1080 [14]
  Activity: 37%
HT-1080 [15]
  Activity: 33%
HT-1080 [16]
  IC50: 3.03 µM
4T1
  IC50: 16.1 µM
HT-1080 [17]
  Activity: 64.2%
HT-1080 [18]
  Activity: Dose-dependent-effect
HT-1080 [19]
  Activity: Dose-dependent-effect
MGC-803
  IC50: 4.48 µM
HT-1080 [20]
  Activity: Dose-dependent-effect
[21]
  inhibition: Dose-dependent-effect
[22]
  Ratio IC50: 3.21
HT-1080 [23]
  Activity: 48%
[24]
  selectivity ratio: 109
HT-1080 [25]
  Activity: 88.5%
A549
  IC50: 17.2 µM
[26]
  IC50 at 72 h: 26.1 µM
HT-1080 [27]
  Activity: 31.2%
